# What was measured:
# L1210 [1] = test: Percent increase in life span relative to untreated controls in murine L1210 leukemia infected B6D2F1J male mice at 50 mg/kg optimal dose; format: functional; conditions: Mus musculus
# CCRF-CEM = test: In vitro growth inhibition against CCRF-CEM (human lymphoblastic leukemic) cell line.; format: functional; conditions: read-out: ID50 (the source's name)
# L1210 [2] = test: Percent increase in life span relative to untreated controls in murine L1210 leukemia infected B6D2F1J male mice at 60 mg/kg optimal dose; format: functional; conditions: Mus musculus
# L1210 [3] = test: Percent increase in life span relative to untreated controls in murine L1210 leukemia infected B6D2F1J male mice at 10.13 mg/kg optimal dose; format: functional; conditions: Mus musculus
# L1210 [4] = test: Percent increase in life span relative to untreated controls in murine L1210 leukemia infected B6D2F1J male mice at 101.25 mg/kg optimal dose; format: functional; conditions: Mus musculus
# L1210 [5] = test: Percent increase in life span relative to untreated controls in murine L1210 leukemia infected B6D2F1J male mice at 30 mg/kg optimal dose; format: functional; conditions: Mus musculus
# L1210 [6] = test: Percent increase in life span relative to untreated controls in murine L1210 leukemia infected B6D2F1J male mice at […] optimal dose; format: functional, Mus musculus
# L1210 [7] = test: Percent increase in life span relative to untreated controls in murine L1210 leukemia infected B6D2F1J male mice at 4 mg/kg optimal dose; format: functional; conditions: Mus musculus
SMILES,IC50 (CCRF-CEM),other results
CCCCC(=O)OCC(=O)[C@]1(O)Cc2c(O)c3c(c(O)c2[C@@H](OC2CC(NC(=O)C(F)(F)F)C(O)C(C)O2)C1)C(=O)c1c(OC)cccc1C3=O (stereo not given in full),240 nM,ILS at 50 mg/kg (L1210 [1]): > 455%
COc1cccc2c1C(=O)c1c(O)c3c(c(O)c1C2=O)C[C@@](O)(C(=O)CSCCSCC(=O)[C@]1(O)Cc2c(O)c4c(c(O)c2[C@H](OC2CC(N)C(O)C(C)O2)C1)C(=O)c1c(OC)cccc1C4=O)C[C@@H]3OC1CC(N)C(O)C(C)O1 (stereo not given in full),1060 nM,
COc1cccc2c1C(=O)c1c(O)c3c(c(O)c1C2=O)C[C@@](O)(C(=O)CSCCCSCC(=O)[C@]1(O)Cc2c(O)c4c(c(O)c2[C@@H](OC2CC(N)C(O)C(C)O2)C1)C(=O)c1c(OC)cccc1C4=O)C[C@@H]3OC1CC(N)C(O)C(C)O1 (stereo not given in full),830 nM,
COc1cccc2c1C(=O)c1c(O)c3c(c(O)c1C2=O)C[C@@](O)(C(=O)C[Se]c1ccccc1)C[C@@H]3OC1CC(NC(=O)C(F)(F)F)C(O)C(C)O1 (stereo not given in full),2800 nM,ILS at 60 mg/kg (L1210 [2]): 66%
CCCCSCC(=O)[C@]1(O)Cc2c(O)c3c(c(O)c2[C@@H](OC2CC(N)C(O)C(C)O2)C1)C(=O)c1c(OC)cccc1C3=O (stereo not given in full),250 nM,ILS at 10.13 mg/kg (L1210 [3]): 33%
COc1cccc2c1C(=O)c1c(O)c3c(c(O)c1C2=O)C[C@@](O)(C(=O)CSc1ccccc1)C[C@@H]3OC1CC(NC(=O)C(F)(F)F)C(O)C(C)O1 (stereo not given in full),> 13700 nM,ILS at 101.25 mg/kg (L1210 [4]): 10%
CCCCCCCCCCCCSCC(=O)[C@]1(O)Cc2c(O)c3c(c(O)c2[C@@H](OC2CC(N)C(O)C(C)O2)C1)C(=O)c1c(OC)cccc1C3=O (stereo not given in full),1440 nM,ILS at 10.13 mg/kg (L1210 [3]): 11%
CCCCCSCC(=O)[C@]1(O)Cc2c(O)c3c(c(O)c2[C@@H](OC2CC(N)C(O)C(C)O2)C1)C(=O)c1c(OC)cccc1C3=O (stereo not given in full),950 nM,ILS at 10.13 mg/kg (L1210 [3]): 33%
CCOC(=O)CSCC(=O)[C@]1(O)Cc2c(O)c3c(c(O)c2[C@@H](OC2CC(N)C(O)C(C)O2)C1)C(=O)c1c(OC)cccc1C3=O (stereo not given in full),230 nM,ILS at 30 mg/kg (L1210 [5]): 50%
CCOC(=O)CSCC(=O)[C@]1(O)Cc2c(O)c3c(c(O)c2[C@@H](OC2CC(NC(=O)C(F)(F)F)C(O)C(C)O2)C1)C(=O)c1c(OC)cccc1C3=O (stereo not given in full),5330 nM,ILS (L1210 [6]): 0%
COc1cccc2c1C(=O)c1c(O)c3c(c(O)c1C2=O)C[C@@](O)(C(=O)CSc1ccccc1)C[C@@H]3OC1CC(N)C(O)C(C)O1 (stereo not given in full),870 nM,ILS at 10.13 mg/kg (L1210 [3]): 22%
COc1cccc2c1C(=O)c1c(O)c3c(c(O)c1C2=O)C[C@@](O)(C(=O)C[Se]c1ccccc1)C[C@@H]3OC1CC(N)C(O)C(C)O1 (stereo not given in full),400 nM,
CCCCCSCC(=O)[C@]1(O)Cc2c(O)c3c(c(O)c2[C@@H](OC2CC(NC(=O)C(F)(F)F)C(O)C(C)O2)C1)C(=O)c1c(OC)cccc1C3=O (stereo not given in full),> 13800 nM,ILS (L1210 [6]): 10%
COc1cccc2c1C(=O)c1c(O)c3c(c(O)c1C2=O)C[C@@](O)(C(=O)CSCCCCCCCCCSCC(=O)[C@]1(O)Cc2c(O)c4c(c(O)c2[C@H](OC2CC(N)C(O)C(C)O2)C1)C(=O)c1c(OC)cccc1C4=O)C[C@@H]3OC1CC(N)C(O)C(C)O1 (stereo not given in full),1230 nM,
CCCCSCC(=O)[C@]1(O)Cc2c(O)c3c(c(O)c2[C@@H](OC2CC(NC(=O)C(F)(F)F)C(O)C(C)O2)C1)C(=O)c1c(OC)cccc1C3=O (stereo not given in full),5620 nM,ILS (L1210 [6]): 0%
CCCCCCCCCCCCSCC(=O)[C@]1(O)Cc2c(O)c3c(c(O)c2[C@@H](OC2CC(NC(=O)C(F)(F)F)C(O)C(C)O2)C1)C(=O)c1c(OC)cccc1C3=O (stereo not given in full),> 15000 nM,ILS (L1210 [6]): 0%
COc1cccc2c1C(=O)c1c(O)c3c(c(O)c1C2=O)C[C@@](O)(C(=O)CO)C[C@@H]3O[C@H]1C[C@H](N)[C@H](O)[C@H](C)O1 [DOXORUBICIN],66 nM,ILS at 4 mg/kg (L1210 [7]): 50%
